Like-named read-outs stand apart in the source and are kept apart here.
Key:
human sEH = molecular target: T1, human sEH (Homo sapiens, UniProt P34913); assay: Inhibition of recombinant human sEH, IC50 assay with 4-nitrophenyl-trans-2,3-epoxy-3-phenylpropyl carbonate as substrate; format: biochemical; settings: for IC90: 0.24 μM enzyme
T1 construct: made in house; host or cells: baculovirus expression system
T1 sequence (P34913 1-555): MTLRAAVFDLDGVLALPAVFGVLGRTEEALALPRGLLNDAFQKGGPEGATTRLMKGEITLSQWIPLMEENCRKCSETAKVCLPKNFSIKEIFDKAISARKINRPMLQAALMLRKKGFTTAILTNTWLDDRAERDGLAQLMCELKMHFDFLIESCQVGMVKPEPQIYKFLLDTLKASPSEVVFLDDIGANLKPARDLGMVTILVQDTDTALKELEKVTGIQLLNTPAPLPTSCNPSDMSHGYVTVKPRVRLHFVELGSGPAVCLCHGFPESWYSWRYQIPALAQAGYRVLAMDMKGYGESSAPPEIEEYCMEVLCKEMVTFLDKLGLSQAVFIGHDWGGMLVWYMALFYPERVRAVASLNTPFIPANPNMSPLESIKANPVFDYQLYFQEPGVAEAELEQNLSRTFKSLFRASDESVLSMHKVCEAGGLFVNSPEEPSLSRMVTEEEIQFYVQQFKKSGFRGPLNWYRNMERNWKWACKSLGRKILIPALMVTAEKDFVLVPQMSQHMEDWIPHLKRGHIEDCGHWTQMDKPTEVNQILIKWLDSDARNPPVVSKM
Procedure: (§1) Assays were performed in triplicate. […] The curve was generated from at least three separate runs, each in triplicate, to obtain the standard deviation (SD) given in Table 1 thru Table 4.

mouse sEH = molecular target: T2, mouse sEH (Mus musculus, UniProt P34914); assay: Inhibition of recombinant mouse sEH, IC50 assay with 4-nitrophenyl-trans-2,3-epoxy-3-phenylpropyl carbonate as substrate; format: biochemical
T2 construct: made in house; host or cells: baculovirus expression system
T2 sequence (P34914 1-554): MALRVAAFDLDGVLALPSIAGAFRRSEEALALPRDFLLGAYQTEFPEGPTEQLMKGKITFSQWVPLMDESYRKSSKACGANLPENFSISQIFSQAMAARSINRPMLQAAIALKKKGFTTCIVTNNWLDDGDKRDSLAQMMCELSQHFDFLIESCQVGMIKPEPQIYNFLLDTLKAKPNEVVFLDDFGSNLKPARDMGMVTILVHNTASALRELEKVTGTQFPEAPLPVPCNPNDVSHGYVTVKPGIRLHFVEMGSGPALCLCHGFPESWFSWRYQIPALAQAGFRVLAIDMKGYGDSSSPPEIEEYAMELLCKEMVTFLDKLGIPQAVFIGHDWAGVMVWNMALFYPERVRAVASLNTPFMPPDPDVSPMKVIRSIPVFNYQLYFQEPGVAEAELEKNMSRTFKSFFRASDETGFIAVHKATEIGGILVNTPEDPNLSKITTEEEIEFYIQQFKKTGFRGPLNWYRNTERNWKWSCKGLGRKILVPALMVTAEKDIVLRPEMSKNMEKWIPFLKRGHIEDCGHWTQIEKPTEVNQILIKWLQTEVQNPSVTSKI
Procedure: as §1

[1] = Tables 17a and b, read-out: IC50 (μM) Human sEH
[2] = Tables 17a and b, read-out: IC50 (μM) Mouse sEH
[3] = Table 9, established protocols, read-out: IC50 (μM) Mouse sEH
[4] = Table 4, […] enzyme, 5 min preincubation, pH 7.4, 30° C., means ± SD, read-out: IC50 (μM) Human sEH
[5] = Table 6, established protocols, read-out: IC50 (μM) Mouse sEH
[6] = Table 5, 5 min preincubation, pH 7.4, 30° C., means ± SD
[7] = Table 5, […] enzyme, 5 min preincubation, pH 7.4, 30° C., means ± SD, read-out: Human sEH IC50
[8] = Table 5, 0.12 μM enzyme, 5 min preincubation, pH 7.4, 30° C., means ± SD
[9] = Table 5, […] enzyme, 5 min preincubation, pH 7.4, 30° C., means ± SD, read-out: Mouse sEH IC50
[10] = Table 8, established protocols, read-out: IC50 (μM) Human sEH
[11] = Table 8, established protocols, read-out: IC50 (μM) Mouse sEH
[12] = Table 9, established protocols, read-out: IC50 (μM) Human sEH

## CCCCC1COC(Nc2cccc(Cl)c2)=N1 (stereo not shown) [Compound 980]
Human sEH; [1]
  IC50: 60 ± 0.01 µM
Mouse sEH; [2]
  IC50: 49 ± 0.01 µM

## O=C(Cc1cccc(Cl)c1)NC1CCCCC1 [Compound 969]
Human sEH; [1]
  IC50: 38 ± 0.01 µM
Mouse sEH; [2]
  IC50: 0.56 ± 0.01 µM

## N#CC(OC(=O)CCCNC(=O)NC12CC3CC(CC(C3)C1)C2)c1ccccc1 (stereo not shown) [Compound 946]
Human sEH; [1]
  IC50: 0.15 ± 0.01 µM
Mouse sEH; [2]
  IC50: 0.05 ± 0.01 µM

## CCCCC(CC)OC(=O)C1CCCC(NC(=O)NC23CC4CC(CC(C4)C2)C3)C1 (stereo not shown) [Compound 904]
Human sEH; read-out: IC50 (μM) Human sEH
  IC50: 0.1 ± 0.01 µM
Mouse sEH; [3]
  IC50: 0.05 ± 0.01 µM

## O=C(NCCCCCCCCCCCC(=O)OCc1ccccc1)NC12CC3CC(CC(C3)C1)C2 [Compound 804, 1-(1-Adamantyl)-3-(11-benzyloxycarbonylundecyl)urea]
Human sEH; [4]
  IC50: 0.13 ± 0.01 µM
Mouse sEH; Table 4, 0.12 μM enzyme, 5 min preincubation, pH 7.4, 30° C., means ± SD, read-out: IC50 (μM) Mouse sEH
  IC50: 0.07 ± 0.01 µM

## CCCCC(C#N)OC(=O)CCCNC(=O)NC12CC3CC(CC(C3)C1)C2 (stereo not shown) [Compound 944]
Human sEH
  IC50: 0.2 ± 0.01 µM
Mouse sEH; [2]
  IC50: 0.05 ± 0.01 µM

## CCCCCCCOCCNC(=O)NC12CC3CC(CC(C3)C1)C2 [Compound 866]
Mouse sEH; [5]
  IC50: 0.06 ± 0.01 µM

## C=CCOC(=O)CCCCCCCCCCCNC(=O)NC12CC3CC(CC(C3)C1)C2 [Compound 781, 1-(1-Adamantyl)-3-(11-allyloxycarbonylundecyl)urea]
Human sEH; [4]
  IC50: 0.1 ± 0.01 µM

## CCOC(=O)CCCCOC(=O)CCCNC(=O)NC12CC3CC(CC(C3)C1)C2 [Compound 877]
Human sEH; [6]
  IC90: 1.5 ± 0.1 µM
Human sEH; [7]
  IC50: 0.13 ± 0.01 µM
Mouse sEH; [8]
  IC90: 0.1 ± 0.01 µM
Mouse sEH; [9]
  IC50: 0.05 ± 0.01 µM

## CCCCCCCCCCCC(=O)NC12CC3CC(CC(C3)C1)C2 [Compound 989]
Human sEH; [10]
  IC50: 5 ± 0.3 µM
Mouse sEH; [11]
  IC50: 0.05 ± 0.01 µM

## O=C(CCCCCCOCCOCCOCc1ccccc1)NC12CC3CC(CC(C3)C1)C2 [Compound 959]
Human sEH; [10]
  IC50: 0.11 ± 0.02 µM
Mouse sEH; [11]
  IC50: 0.05 ± 0.01 µM

## CCOC(=O)CCCCCCCOC(=O)CCCNC(=O)NC12CC3CC(CC(C3)C1)C2 [Compound 879]
Human sEH; [6]
  IC90: 0.72 ± 0.01 µM
Human sEH; [7]
  IC50: 0.11 ± 0.01 µM
Mouse sEH; [8]
  IC90: 0.16 ± 0.02 µM
Mouse sEH; [9]
  IC50: 0.05 ± 0.01 µM

## CCNC(=O)CCCCCCCCCCCNC(=O)NC12CC3CC(CC(C3)C1)C2 [Compound 792, 1-(1-Adamantyl)-3-(11-ethylaminocarbonylundecyl)urea]
Human sEH; [4]
  IC50: 0.1 ± 0.01 µM
Mouse sEH; Table 4, […] enzyme, 5 min preincubation, pH 7.4, 30° C., means ± SD, read-out: IC50 (μM) Mouse sEH
  IC50: 0.05 ± 0.01 µM

## CC(C)OC(=O)CCCCCCCCCCCNC(=O)NC12CC3CC(CC(C3)C1)C2 [Compound 785, 1-(1-Adamantyl)-3-(11-iso-propoxycarbonylundecyl)urea]
Human sEH; [4]
  IC50: 0.1 ± 0.01 µM

## O=C(NC1CCC(OCCOCCOCC(F)(F)F)CC1)NC12CC3CC(CC(C3)C1)C2 (stereo not shown) [Compound 985]
Human sEH; [12]
  IC50: 0.1 ± 0.01 µM
Mouse sEH; [3]
  IC50: 0.05 ± 0.01 µM

## C=CCOC1CCC(NC(=O)NC23CC4CC(CC(C4)C2)C3)CC1 (stereo not shown) [Compound 982]
Human sEH; [12]
  IC50: 0.1 ± 0.01 µM
Mouse sEH; [3]
  IC50: 0.05 ± 0.01 µM

## CCCCCOC(=O)c1cccc(NC(=O)NC23CC4CC(CC(C4)C2)C3)c1 [Compound 859]
Human sEH; [12]
  IC50: 0.1 ± 0.01 µM
Mouse sEH; [3]
  IC50: 0.05 ± 0.01 µM

## CCCCCCCCC(NC(=O)CCCCCCCCCCCNC(=O)NC12CC3CC(CC(C3)C1)C2)C(=O)O (stereo not shown) [Compound 1001]
Human sEH; [1]
  IC50: 0.24 ± 0.01 µM
Mouse sEH; [2]
  IC50: 0.05 ± 0.01 µM

## CCOCCOCCOCCCCCCC(=O)NC12CC3CC(CC(C3)C1)C2 [Compound 1007]
Mouse sEH; [11]
  IC50: 0.05 ± 0.01 µM

## O=C(CCCNC(=O)NC1CCCCC1)NC(Cc1ccc(O)cc1)C(=O)O (stereo not shown) [Compound 632-Tyr, 2-[4-(3-Cyclohexyl-ureido)-butyrylamino]-3-(4-hydroxy-phenyl)-propionic acid]
Mouse sEH; Example 22, mouse sEH
  inhibition potency: hundreds of nanomolar range

## CCCCCCC(=O)NCCNC(=O)Nc1cccc(Cl)c1 [Compound 765, 1-(3-chlorophenyl)-3-(2-hexylcarbonylaminoethyl)urea]
Mouse sEH; Table 3, […] enzyme, 5 min preincubation, pH 7.4, 30° C., means ± SD, read-out: IC50 (μM) Mouse sEH
  IC50: 100 ± 10 µM

## CCCCCOCCCCNC(=O)NC12CC3CC(CC(C3)C1)C2 [Compound 868]
Mouse sEH; [5]
  IC50: 0.05 ± 0.01 µM

## O=C(CCCNC(=O)NC1CCCCC1)NC(Cc1c[nH]cn1)C(=O)O (stereo not shown) [Histidine]
Mouse sEH; Table 10, unpurified reaction solutions used directly, theoretical concentration 10 mM, means ± SD of three experiments, read-out: Mouse sEH IC50
  IC50: 1.9 ± 0.2 µM

## CCCCCCCCC(NC(=O)CCCCCCCCCCCNC(=O)NC12CC3CC(CC(C3)C1)C2)C(=O)OC1C(CO)CC(O)C(O)C1O (stereo not shown) [Compound 1002]
Mouse sEH; [2]
  IC50: 0.08 ± 0.01 µM

Reference: patent US20050164951A1, “Inhibitors for the soluble epoxide hydrolase” (The Regents of the University of California, priority 2003, published 2005)
